Several values for one entry are separate records, joined by “and”; a condition that tells them apart may be missing. Equal values may be shown once. Entries after “also recorded” stand apart in the source; their conditions may differ.
Experiments:
mice = assay: In vivo toxicity / lethality test by injection into mice; conditions: injected
hIKCa1 = hIKCa1 (Homo sapiens, UniProt O15554); assay: Patch-clamp block of recombinant hIKCa1 channels expressed in Cos-7 cells (voltage ramps)
hKv1.3 channels = hKv1.3 channels (Homo sapiens, UniProt P22001); assay: Whole-cell patch-clamp block of hKv1.3 channels endogenously expressed in human peripheral blood T cells; type: cell-based; parameters: channels expressed endogenously in human peripheral blood T cells; endogenous in cells; host or cells: human peripheral blood T lymphocytes from healthy volunteers, PHA-stimulated
hNaV1.5 = hNaV1.5 (Homo sapiens, UniProt Q14524); assay: Patch-clamp block of cardiac voltage-gated Na+ channel NaV1.5 expressed in Cos-7 cells; conditions: 10 nM
hERG channel = hERG channel (Homo sapiens, UniProt Q12809); assay: Patch-clamp block of hERG channels stably expressed in HEK-293 cells; conditions: 10 nM
hBK (KCa1.1) = hBK (KCa1.1) (Homo sapiens, UniProt Q12791); assay: Patch-clamp block of hBK (KCa1.1) channels expressed in tsA-201 cells; conditions: 10 nM
hKv1.4 = hKv1.4 (Homo sapiens, UniProt P22459); assay: Patch-clamp block of fast inactivation-removed hKv1.4 (Kv1.4ΔN) channels in Cos-7 cells; conditions: 10 nM
rats = assay: Delayed-type hypersensitivity (DTH) response in DNFB-sensitized rats, ear thickness; type: in vivo, rat; conditions: single dose of 10 micrograms, 24 hours
Excerpt: In order to perform this kind of experiment we set up a protocol to study DTH response in rats. The system used is basically that described by Phanuphak et al., 1974. In brief, two groups of rats (3 or 5 animals each) were sensitized by applications of 40 microliters of 0.7% DNFB in 4:1 proportion of acetone: olive oil solution, in two consecutive days (days one and two), after gentle shaving of the dorsal-back region of the animals. After 7 days of the second application of the sensitizing solution, the animals were challenged by a single application of 20 microliter of 0.4% DNFB dissolved in the acetone: olive oil solution described above. This solution was spread over the dorsal surface of the right-side ears and allowed to dry, whereas the left-side ears were spread with only the vehicle solution (acetone:olive oil). On day eight of the protocol, a subcutaneous injection of 100 microliter of phosphate saline buffer pH 7.8 (PBS) was applied to each one of the animals used as control, whereas to the experimental group of rats, an amount of 10 micrograms pure Vm24 in 100 microliters PBS was subcutaneously applied. The thickness of both ears of all animals was measured 24 hours after of the application of Vm24.

hKv1.2 = hKv1.2 (Homo sapiens, UniProt P16389); assay: Patch-clamp block of hKv1.2 channels expressed in Cos-7 cells; conditions: for remaining current fraction (RCF) hKv1.2: n=3
hKv1.5 = hKv1.5 (Homo sapiens, UniProt P22460); assay: Patch-clamp block of hKv1.5 channels stably expressed in MEL cells; conditions: 10 nM
rKv2.1 = target: T1, rKv2.1 (Rattus norvegicus, UniProt P15387); assay: Patch-clamp block of rKv2.1 channels expressed in Cos-7 cells; conditions: 10 nM
T1 sequence (P15387 1-857): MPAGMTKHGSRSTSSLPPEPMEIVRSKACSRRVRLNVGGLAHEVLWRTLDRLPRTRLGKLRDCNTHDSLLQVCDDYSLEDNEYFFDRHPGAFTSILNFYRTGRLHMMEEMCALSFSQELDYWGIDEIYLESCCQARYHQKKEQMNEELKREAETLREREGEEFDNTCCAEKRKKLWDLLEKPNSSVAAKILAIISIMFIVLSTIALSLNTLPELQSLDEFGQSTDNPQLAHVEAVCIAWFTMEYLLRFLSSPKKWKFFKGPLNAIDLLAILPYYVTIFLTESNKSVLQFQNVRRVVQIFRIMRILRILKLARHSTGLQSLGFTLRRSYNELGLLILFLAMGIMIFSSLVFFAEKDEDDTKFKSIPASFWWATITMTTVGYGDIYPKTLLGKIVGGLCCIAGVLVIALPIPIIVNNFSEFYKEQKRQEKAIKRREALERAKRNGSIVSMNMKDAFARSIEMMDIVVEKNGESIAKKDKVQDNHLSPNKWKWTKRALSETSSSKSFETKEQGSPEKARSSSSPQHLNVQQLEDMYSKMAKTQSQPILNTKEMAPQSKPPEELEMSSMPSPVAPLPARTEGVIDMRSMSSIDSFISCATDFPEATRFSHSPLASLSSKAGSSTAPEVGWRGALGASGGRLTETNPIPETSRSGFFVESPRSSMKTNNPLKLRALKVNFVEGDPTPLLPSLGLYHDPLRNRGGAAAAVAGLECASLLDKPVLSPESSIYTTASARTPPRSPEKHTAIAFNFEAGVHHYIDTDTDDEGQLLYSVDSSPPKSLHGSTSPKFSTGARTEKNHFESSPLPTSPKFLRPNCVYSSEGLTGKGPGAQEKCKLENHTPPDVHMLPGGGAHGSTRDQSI

mKv1.1 = mKv1.1 (Mus musculus, UniProt P16388); assay: Patch-clamp block of mKv1.1 channels stably expressed in L929 cells; conditions: for remaining current fraction (RCF) mKv1.1: n=3
Chain of mKv1.1 (P16388 whole entry): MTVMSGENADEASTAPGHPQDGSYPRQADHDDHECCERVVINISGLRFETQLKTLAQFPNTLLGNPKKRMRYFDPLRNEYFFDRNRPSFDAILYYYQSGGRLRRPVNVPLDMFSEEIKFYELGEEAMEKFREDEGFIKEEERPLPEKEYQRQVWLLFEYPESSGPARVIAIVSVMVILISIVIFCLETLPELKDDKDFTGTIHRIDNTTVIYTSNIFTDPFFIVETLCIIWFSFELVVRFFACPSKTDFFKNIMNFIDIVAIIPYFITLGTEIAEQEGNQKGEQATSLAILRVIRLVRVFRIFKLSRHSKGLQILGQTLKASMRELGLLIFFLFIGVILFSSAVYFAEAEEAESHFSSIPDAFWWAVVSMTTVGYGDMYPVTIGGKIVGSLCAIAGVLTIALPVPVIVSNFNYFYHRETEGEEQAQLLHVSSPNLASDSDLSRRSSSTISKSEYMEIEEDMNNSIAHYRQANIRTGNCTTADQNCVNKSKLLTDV

Chain of hKv1.2 (P16389 whole entry): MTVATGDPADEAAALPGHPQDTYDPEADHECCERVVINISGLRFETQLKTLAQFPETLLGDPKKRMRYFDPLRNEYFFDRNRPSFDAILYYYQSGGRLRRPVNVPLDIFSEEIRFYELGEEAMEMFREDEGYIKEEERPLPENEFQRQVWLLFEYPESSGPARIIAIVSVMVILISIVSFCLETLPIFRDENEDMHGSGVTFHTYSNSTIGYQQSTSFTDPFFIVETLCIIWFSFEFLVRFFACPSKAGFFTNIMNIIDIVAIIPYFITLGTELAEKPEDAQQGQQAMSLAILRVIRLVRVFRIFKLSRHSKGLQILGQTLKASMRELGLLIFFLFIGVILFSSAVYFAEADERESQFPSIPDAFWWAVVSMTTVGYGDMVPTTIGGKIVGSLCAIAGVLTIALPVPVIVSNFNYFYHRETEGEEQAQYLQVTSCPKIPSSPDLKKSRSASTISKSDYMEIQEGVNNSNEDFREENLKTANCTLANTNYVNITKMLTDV
Chain of hIKCa1 (O15554 whole entry): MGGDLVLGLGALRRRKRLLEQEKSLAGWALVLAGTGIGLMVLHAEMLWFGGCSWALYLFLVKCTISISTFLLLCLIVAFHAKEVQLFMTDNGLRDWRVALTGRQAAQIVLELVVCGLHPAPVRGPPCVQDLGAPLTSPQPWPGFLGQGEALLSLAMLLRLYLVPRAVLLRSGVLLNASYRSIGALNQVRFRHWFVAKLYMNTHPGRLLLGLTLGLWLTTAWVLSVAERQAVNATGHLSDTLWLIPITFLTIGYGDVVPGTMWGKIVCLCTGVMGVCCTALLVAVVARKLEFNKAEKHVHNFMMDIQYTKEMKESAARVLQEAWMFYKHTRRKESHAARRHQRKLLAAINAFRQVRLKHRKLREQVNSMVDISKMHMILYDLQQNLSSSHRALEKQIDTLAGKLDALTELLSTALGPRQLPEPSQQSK
Chain of hKv1.3 channels (P22001 whole entry): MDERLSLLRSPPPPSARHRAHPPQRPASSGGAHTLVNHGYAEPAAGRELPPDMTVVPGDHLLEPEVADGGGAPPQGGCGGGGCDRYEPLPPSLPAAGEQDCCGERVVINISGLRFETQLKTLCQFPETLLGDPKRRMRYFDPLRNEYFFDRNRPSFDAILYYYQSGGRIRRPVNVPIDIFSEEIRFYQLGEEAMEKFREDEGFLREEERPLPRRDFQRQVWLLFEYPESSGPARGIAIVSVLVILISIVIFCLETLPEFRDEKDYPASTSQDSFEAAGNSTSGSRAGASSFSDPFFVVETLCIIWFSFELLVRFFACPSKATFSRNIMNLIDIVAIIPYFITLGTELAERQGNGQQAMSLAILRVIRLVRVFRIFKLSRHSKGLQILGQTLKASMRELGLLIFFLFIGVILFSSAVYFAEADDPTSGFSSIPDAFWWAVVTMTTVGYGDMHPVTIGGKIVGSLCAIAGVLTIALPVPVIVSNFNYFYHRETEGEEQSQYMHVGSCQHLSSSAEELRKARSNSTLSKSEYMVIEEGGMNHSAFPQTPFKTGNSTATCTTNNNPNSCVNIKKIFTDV
Chain of hKv1.4 (P22459 148-653): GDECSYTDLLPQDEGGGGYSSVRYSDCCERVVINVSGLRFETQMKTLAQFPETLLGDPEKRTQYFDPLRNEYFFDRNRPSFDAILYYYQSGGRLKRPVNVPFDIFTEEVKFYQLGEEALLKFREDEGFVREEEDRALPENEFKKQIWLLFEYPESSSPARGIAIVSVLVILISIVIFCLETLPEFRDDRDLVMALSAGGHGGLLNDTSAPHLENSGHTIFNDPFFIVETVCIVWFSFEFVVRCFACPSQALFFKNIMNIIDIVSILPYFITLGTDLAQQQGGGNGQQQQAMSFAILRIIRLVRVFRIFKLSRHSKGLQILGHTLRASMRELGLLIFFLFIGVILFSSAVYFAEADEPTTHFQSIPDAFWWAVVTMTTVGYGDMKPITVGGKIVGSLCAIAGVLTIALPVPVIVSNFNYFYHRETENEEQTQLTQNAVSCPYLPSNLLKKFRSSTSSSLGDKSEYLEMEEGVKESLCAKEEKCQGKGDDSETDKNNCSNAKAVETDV
Chain of hKv1.5 (P22460 whole entry): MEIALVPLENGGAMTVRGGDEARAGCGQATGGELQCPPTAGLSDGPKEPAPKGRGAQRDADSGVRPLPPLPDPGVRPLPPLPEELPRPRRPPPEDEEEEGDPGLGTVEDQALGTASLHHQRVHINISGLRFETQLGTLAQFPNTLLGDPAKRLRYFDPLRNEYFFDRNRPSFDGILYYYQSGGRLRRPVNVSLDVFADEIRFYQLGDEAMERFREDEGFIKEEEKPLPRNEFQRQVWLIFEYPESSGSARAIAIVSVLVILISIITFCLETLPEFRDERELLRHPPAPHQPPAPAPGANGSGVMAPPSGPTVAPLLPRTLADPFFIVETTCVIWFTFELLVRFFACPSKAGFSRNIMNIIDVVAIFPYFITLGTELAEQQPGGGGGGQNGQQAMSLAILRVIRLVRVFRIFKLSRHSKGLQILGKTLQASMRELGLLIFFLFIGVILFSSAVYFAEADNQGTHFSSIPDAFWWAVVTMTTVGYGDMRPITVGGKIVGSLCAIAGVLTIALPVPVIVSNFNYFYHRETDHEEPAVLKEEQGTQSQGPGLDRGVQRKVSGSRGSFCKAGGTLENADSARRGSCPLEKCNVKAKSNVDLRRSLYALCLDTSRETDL
Chain of hBK (KCa1.1) (Q12791 1-1178 isoform Q12791-5): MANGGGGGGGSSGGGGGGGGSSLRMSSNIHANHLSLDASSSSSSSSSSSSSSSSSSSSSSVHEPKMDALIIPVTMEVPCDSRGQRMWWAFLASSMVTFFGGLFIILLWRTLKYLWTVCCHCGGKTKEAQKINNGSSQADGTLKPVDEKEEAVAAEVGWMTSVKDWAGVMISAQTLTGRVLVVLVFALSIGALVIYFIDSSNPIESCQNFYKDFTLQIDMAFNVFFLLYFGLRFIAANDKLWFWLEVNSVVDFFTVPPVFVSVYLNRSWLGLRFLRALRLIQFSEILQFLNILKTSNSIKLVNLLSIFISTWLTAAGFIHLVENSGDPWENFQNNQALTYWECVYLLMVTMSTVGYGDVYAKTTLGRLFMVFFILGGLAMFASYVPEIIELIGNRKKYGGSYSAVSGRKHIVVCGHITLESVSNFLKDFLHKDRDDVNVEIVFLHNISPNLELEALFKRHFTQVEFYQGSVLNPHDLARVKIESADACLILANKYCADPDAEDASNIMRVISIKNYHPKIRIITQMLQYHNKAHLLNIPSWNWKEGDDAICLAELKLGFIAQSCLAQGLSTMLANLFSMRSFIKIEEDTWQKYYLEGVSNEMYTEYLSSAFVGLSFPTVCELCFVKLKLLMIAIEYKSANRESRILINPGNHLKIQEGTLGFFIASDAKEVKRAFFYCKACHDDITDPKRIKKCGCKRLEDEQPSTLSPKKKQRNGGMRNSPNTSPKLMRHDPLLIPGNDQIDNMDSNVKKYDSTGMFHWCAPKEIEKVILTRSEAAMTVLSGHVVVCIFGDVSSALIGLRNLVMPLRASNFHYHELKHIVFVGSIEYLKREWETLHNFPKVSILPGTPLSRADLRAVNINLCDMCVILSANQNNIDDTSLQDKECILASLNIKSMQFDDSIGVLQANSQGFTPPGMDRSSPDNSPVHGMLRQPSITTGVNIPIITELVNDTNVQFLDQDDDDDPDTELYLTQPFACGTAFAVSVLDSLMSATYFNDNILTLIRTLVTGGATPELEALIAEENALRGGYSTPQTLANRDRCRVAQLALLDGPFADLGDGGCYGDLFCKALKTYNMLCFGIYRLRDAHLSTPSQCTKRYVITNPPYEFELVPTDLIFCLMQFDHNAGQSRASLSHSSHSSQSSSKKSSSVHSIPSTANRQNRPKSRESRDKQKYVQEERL

CC[C@H](C)[C@H](NC(=O)[C@H](C)NC(=O)[C@H](C)NC(=O)[C@H](C)N)C(=O)N[C@@H](CO)C(=O)N[C@H]1CSSC[C@@H]2NC(=O)[C@H](CCCCN)NC(=O)CNC(=O)[C@H](CC(N)=O)NC(=O)[C@H](CCCCN)NC(=O)[C@@H]3CSSC[C@@H](C(N)=O)NC(=O)[C@H](Cc4ccc(O)cc4)NC(=O)[C@H](Cc4ccc(O)cc4)NC(=O)[C@@H]4CSSC[C@H](NC(=O)[C@H](CCCCN)NC(=O)[C@@H]5CCCN5C(=O)[C@@H]5CCCN5C(=O)[C@H](CSSC[C@H](NC(=O)[C@H](CCCCN)NC(=O)[C@H](CCCNC(=N)N)NC(=O)[C@H](CC(N)=O)NC(=O)[C@H](CCSC)NC2=O)C(=O)N[C@@H](CCCCN)C(=O)N4)NC(=O)[C@H](CCC(=O)O)NC(=O)[C@@H]2CCCN2C(=O)[C@H](CO)NC(=O)CNC(=O)[C@H](C(C)C)NC1=O)C(=O)N[C@@H](CCCNC(=N)N)C(=O)N[C@@H](C)C(=O)N[C@@H](CCC(N)=O)C(=O)NCC(=O)N3 [Vm24]
toxicity / symptoms of intoxication in mice (mice; up to 200 microgram per mouse of 20 grams (10,000 microgram/kilogram)): not toxic; also recorded: no observable symptoms of intoxication
toxicity in experimental animals (mice; up to 10,000 microgram per 20 gram mouse weight (so in the source)): not toxic
Kd (hIKCa1): ~14 nM
selectivity for hKv1.3 over hIKCa1 (hIKCa1): ≥ 4500 fold
block of hIKCa1 (hIKCa1; 1 nM): practically does not blocks
time to reach equilibrium block of hIKCa1 (hIKCa1; 10 nM): 4.5 min
inhibition at 0.01 µM (hIKCa1; COS-7, read-out: current inhibition hIKCa1, 10 nM): ~40%
remaining activity at 0.01 µM (hIKCa1; COS-7, read-out: slope s of current-voltage relationship, % of control): ~52%
reversal of hIKCa1 block on wash-out (hIKCa1; after 10 nM, in 2.5 min toxin-free solution): fully reversed
block of hKv1.3 current (hKv1.3 channels; 3 pM): over 50%
level at which loss of current saturates, % of the peak recorded in control solution (hKv1.3 channels; 3 pM, 10.5-minute application): ~36%
block of hKv1.3 current (words) (hKv1.3 channels; 0.3 nM): full block
block of hKv1.3 current (words) (hKv1.3 channels; 1 nM): completely disappeared; also recorded: full block; also recorded: blocks hKv1.3 channels completely; also recorded: almost completely blocked
blockage of hKv1.3 current (hKv1.3 channels; 10 nM): 100%
time for equilibrium block of hKv1.3 to develop (hKv1.3 channels; 10 nM): 3.5 min
remaining current fraction (RCF) hKv1.3 (hKv1.3 channels; 10 nM, mean±SEM, n=3): 0.01±0.01
fraction of blocked hKv1.3 current recovered (hKv1.3 channels; 30 minute washout after 3 pM): one third
Hill coefficient n (hKv1.3 channels; dose-response fit, hKv1.3): ~1
Kd (hKv1.3 channels; fit of dose-response of remaining current fraction, human T cells, stated to be an overestimate of the real Kd, read-out: Kd (dissociation constant) for hKv1.3): 0.0029 nM and < 0.003 nM
off rate (hKv1.3 channels; from wash-out time constant after 3 pM): ~0.00026 s⁻¹
effect on NaV1.5 current (hNaV1.5): lack of blockade; also recorded: does not modify
effect on hERG current (hERG channel): lack of blockade; also recorded: does not modify
effect on hBK current (hBK (KCa1.1)): lack of blockade; also recorded: does not modify
effect on hKv1.4 current (hKv1.4): practically insensitive; also recorded: does not modify
inflammation of the ear (thickness, unchallenged ear subtracted) (rats): no more than 0.10 mm
Kd (hKv1.2): 5 to 10 nM
selectivity for hKv1.3 over hKv1.2 (hKv1.2): ≥ 1500 fold
remaining current fraction (RCF) hKv1.2 (hKv1.2; 1 nM): 0.81±0.015
time for equilibrium block of hKv1.2 to develop (hKv1.2; 10 nM): 5.5 min
remaining current fraction (RCF) hKv1.2 (hKv1.2; 10 nM): 0.54±0.08
reversibility of hKv1.2 block (hKv1.2; after 10 nM, wash-out): not fully reversible
effect on hKv1.5 current (hKv1.5): practically insensitive; also recorded: does not modify
effect on rKv2.1 current (rKv2.1): lack of blockade; also recorded: does not modify
Kd (mKv1.1): 30 to 40 nM
selectivity for hKv1.3 over mKv1.1 (mKv1.1): ≥ 10000 fold
remaining current fraction (RCF) mKv1.1 (mKv1.1; 1 nM): 0.97±0.02
time for equilibrium block of mKv1.1 to develop (mKv1.1; 10 nM): 6 min
remaining current fraction (RCF) mKv1.1 (mKv1.1; 10 nM): 0.80±0.02
inhibition at 0.01 µM (mKv1.1; L929, read-out: current inhibition mKv1.1): 20 to 50%

From patent US8394770B2 (priority 2007, dated 2013)
